# Experimental data published in patent US6569881B1, “Substituted benzimidazole, the production thereof and the use thereof as means against parasitic protozoa” (Bayer Aktiengesellschaft, priority 1999, dated 2003).
# Columns and labels:
# Format in all cases: in vivo, chicken chicks
# [1] = test system: Eimeria acervulina, Eimeria maxima and Eimeria tenella; assay: Cage experiments coccidiosis/chicks, mixed experimental infection
# Procedure: (§1) The efficacy of the compounds according to the invention can be confirmed, for example, in cage experiments using the following experimental arrangement, in which the animals are treated with the respective individual components and with the mixtures of the individual components.
# (§2) An active compound-containing feed is prepared in such a way that the required amount of active compound is thoroughly mixed with a nutritionally balanced animal feed, e.g. with the chick feed indicated below.
# (§3) 8 to 12 day-old male chicken chicks raised under coccidea-free conditions (e.g. LSL Brinkschulte/Senden) receive the compounds according to the invention (test substances) from 3 days before (day -3) the infection (=a.i.) until 8 (9) days after the infection (=p.i.) with the feed in the concentration indicated in ppm. Three animals are kept in each cage. Per dose, one to a number of groups of this type are employed. Infection is carried out by means of a stomach tube directly into the crop using approximately 100,000 sporulated oocysts of Eimeria acervulina and with in each case approximately 30,000 oocysts of E. maxima and 40,000 sporulated oocysts of E. tenella. These are highly virulent strains. The exact infectious dose is adjusted such that if possible one of three experimentally infected untreated chicks dies due to infection. For the assessment of the efficacy, the following criteria are taken into consideration: weight increase from the start of the experiment to the end of the experiment, death rate due to infection, macroscopic assessment of the faeces with respect to diarrhoea and excretion of blood on days 5 and 7 p.i. (grade 0 to 6), macroscopic grade of the intestinal mucous membrane, in particular of the cecums (grade 0 to 6) and the oocyst excretion and also the proportion (in %) of the oocysts sporulating within 24 hours. The number of oocysts in the faeces was determined with the aid of the McMaster counting chamber (see Engelbrecht and coworkers “Parasitologische Arbeitsmethoden in Medizin und Veterinärmedizin, [Parasitological working methods in medicine and veterinary medicine] Akademie-Verlag, Berlin (1965)). The individual findings are related to the untreated noninfected control groups and an overall grade is calculated (cf. A. Haberkorn (1986), pp. 263 to 270 in Research in Avian Coccidiosis ed L. R. McDougald, L. P. Joyner, P. L. Long Proceedings of the Georgia Coccidiosis Conference Nov, 18-20, 1985 Athens/Ga. USA).
# In the column “ppm”, the concentration of the active compound employed in the feed is indicated in ppm.
# In the column “mortality”, the percentage of the animals which have died is indicated under % and the number of the animals which have died/animals employed in the experiment is indicated under n.
# In the column “weight % of not inf. control”, the ratio of the weight of the treated animals to the weight of the noninfected control group is indicated.
# (§4) In the columns “dropping scores”, “lesion score” and “oocyst control”, individual details of the action are given.
# In the column “% efficacy”, the overall rating is assessed; 0% means no action, 100% means complete action.
# Eimeria acervulina = assay: Cage experiments coccidiosis/chicks, Eimeria acervulina part of the mixed infection; settings: for Efficacy against Eimeria acervulina (grade): first symbol of cell; as to Efficacy against Eimeria acervulina (grade): key: 2 = complete action; 1 = weak action; 0 = inactive; D = death
# Procedure: as §1, §2, §3, §4
# Eimeria maxima = assay: Cage experiments coccidiosis/chicks, Eimeria maxima part of the mixed infection; settings: for Efficacy against Eimeria maxima (grade): second symbol of cell; as to Efficacy against Eimeria maxima (grade): key: 2 = complete action; 1 = weak action; 0 = inactive; D = death
# Procedure: as §1, §2, §3, §4
# Eimeria tenella = assay: Cage experiments coccidiosis/chicks, Eimeria tenella part of the mixed infection; settings: for Efficacy against Eimeria tenella (grade): third symbol of cell; as to Efficacy against Eimeria tenella (grade): key: 2 = complete action; 1 = weak action; 0 = inactive; D = death
# Procedure: as §1, §2, §3, §4
structure (smiles),measurement,setting,value
Cc1oc(=O)oc1Cn1c(C(F)(F)F)nc2c(Br)cc3c(c21)OC(F)(F)C(F)(F)O3 [Example 14],% efficacy tot.,[1]; 2.5 ppm in feed,30%
same,mortality %,[1]; 2.5 ppm in feed,0%
same,mortality n (died/employed),[1]; 2.5 ppm in feed,0/3
same,oocyst in % of inf. control tot.,[1]; 2.5 ppm in feed,35%
same,weight % of not inf. control,[1]; 2.5 ppm in feed,44%
same,dropping scores,"[1]; 2.5 ppm in feed, grade 0 to 6",6
same,lesion score,"[1]; 2.5 ppm in feed, grade 0 to 6",6
same,% efficay tot.,[1]; 5 ppm,0%
same,dropping scores,[1]; 5 ppm,6
same,lesion score,[1]; 5 ppm,6
same,mortality %,[1]; 5 ppm,33%
same,mortality n,[1]; 5 ppm,1/3
same,oocyst in % of inf. control tot.,[1]; 5 ppm,67 % of inf. control
same,weight % of not inf. control,[1]; 5 ppm,29 % of not inf. control
same,% efficacy tot.,[1]; 5 ppm in feed,66%
same,mortality %,[1]; 5 ppm in feed,33%
same,mortality n (died/employed),[1]; 5 ppm in feed,1/3
same,oocyst in % of inf. control tot.,[1]; 5 ppm in feed,2%
same,weight % of not inf. control,[1]; 5 ppm in feed,90.6%
same,dropping scores,"[1]; 5 ppm in feed, grade 0 to 6",6
same,lesion score,"[1]; 5 ppm in feed, grade 0 to 6",5.5
same,% efficay tot.,[1]; 7.5 ppm,45%
same,dropping scores,[1]; 7.5 ppm,6
same,lesion score,[1]; 7.5 ppm,6
same,mortality %,[1]; 7.5 ppm,0%
same,mortality n,[1]; 7.5 ppm,0/3
same,oocyst in % of inf. control tot.,[1]; 7.5 ppm,15 % of inf. control
same,weight % of not inf. control,[1]; 7.5 ppm,61 % of not inf. control
same,% efficay tot.,[1]; 10 ppm,45%
same,dropping scores,[1]; 10 ppm,3
same,lesion score,[1]; 10 ppm,6
same,mortality %,[1]; 10 ppm,0%
same,mortality n,[1]; 10 ppm,0/3
same,oocyst in % of inf. control tot.,[1]; 10 ppm,16 % of inf. control
same,weight % of not inf. control,[1]; 10 ppm,79 % of not inf. control
same,% efficacy tot.,[1]; 10 ppm in feed,69%
same,mortality %,[1]; 10 ppm in feed,0%
same,mortality n (died/employed),[1]; 10 ppm in feed,0/3
same,oocyst in % of inf. control tot.,[1]; 10 ppm in feed,4%
same,weight % of not inf. control,[1]; 10 ppm in feed,81%
same,dropping scores,"[1]; 10 ppm in feed, grade 0 to 6",4
same,lesion score,"[1]; 10 ppm in feed, grade 0 to 6",6
same,oocyst in % of inf. control ac.,Eimeria acervulina; 2.5 ppm in feed,92%
same,oocyst in % of inf. control ac.,Eimeria acervulina; 5 ppm,80 % of inf. control
same,oocyst in % of inf. control ac.,Eimeria acervulina; 5 ppm in feed,3%
same,oocyst in % of inf. control ac.,Eimeria acervulina; 7.5 ppm,16 % of inf. control
same,oocyst in % of inf. control ac.,Eimeria acervulina; 10 ppm,2 % of inf. control
same,oocyst in % of inf. control ac.,Eimeria acervulina; 10 ppm in feed,1%
same,Efficacy against Eimeria acervulina (grade),Eimeria acervulina; Dose 5 ppm,2
same,Efficacy against Eimeria acervulina (grade),Eimeria acervulina; Dose 10 ppm,2
same,oocyst in % of inf. control max.,Eimeria maxima; 2.5 ppm in feed,0%
same,oocyst in % of inf. control max.,Eimeria maxima; 5 ppm,57 % of inf. control
same,oocyst in % of inf. control max.,Eimeria maxima; 5 ppm in feed,6%
same,oocyst in % of inf. control max.,Eimeria maxima; 7.5 ppm,1 % of inf. control
same,oocyst in % of inf. control max.,Eimeria maxima; 10 ppm,>100 % of inf. control
same,oocyst in % of inf. control max.,Eimeria maxima; 10 ppm in feed,0%
same,Efficacy against Eimeria maxima (grade),Eimeria maxima; Dose 5 ppm,2
same,Efficacy against Eimeria maxima (grade),Eimeria maxima; Dose 10 ppm,2
same,oocyst in % of inf. control ten.,Eimeria tenella; 2.5 ppm in feed,12%
same,oocyst in % of inf. control ten.,Eimeria tenella; 5 ppm,44 % of inf. control
same,oocyst in % of inf. control ten.,Eimeria tenella; 5 ppm in feed,1%
same,oocyst in % of inf. control ten.,Eimeria tenella; 7.5 ppm,15 % of inf. control
same,oocyst in % of inf. control ten.,Eimeria tenella; 10 ppm,26 % of inf. control
same,oocyst in % of inf. control ten.,Eimeria tenella; 10 ppm in feed,7%
same,Efficacy against Eimeria tenella (grade),Eimeria tenella; Dose 5 ppm,1
same,Efficacy against Eimeria tenella (grade),Eimeria tenella; Dose 10 ppm,1
Cc1oc(=O)oc1Cn1c(C(F)(F)F)nc2cc(Cl)c(C(F)(F)F)cc21 [Example 18],% efficacy tot.,[1]; 5 ppm in feed,7%
same,mortality %,[1]; 5 ppm in feed,0%
same,mortality n (died/employed),[1]; 5 ppm in feed,0/3
same,oocyst in % of inf. control tot.,[1]; 5 ppm in feed,>100%
same,weight % of not inf. control,[1]; 5 ppm in feed,33%
same,dropping scores,"[1]; 5 ppm in feed, grade 0 to 6",6
same,lesion score,"[1]; 5 ppm in feed, grade 0 to 6",6
same,% efficacy tot.,[1]; 10 ppm in feed,5%
same,mortality %,[1]; 10 ppm in feed,0%
same,mortality n (died/employed),[1]; 10 ppm in feed,0/3
same,oocyst in % of inf. control tot.,[1]; 10 ppm in feed,>100%
same,weight % of not inf. control,[1]; 10 ppm in feed,30%
same,dropping scores,"[1]; 10 ppm in feed, grade 0 to 6",6
same,lesion score,"[1]; 10 ppm in feed, grade 0 to 6",6
same,% efficacy tot.,[1]; 25 ppm in feed,75%
same,mortality %,[1]; 25 ppm in feed,0%
same,mortality n (died/employed),[1]; 25 ppm in feed,0/3
same,oocyst in % of inf. control tot.,[1]; 25 ppm in feed,1%
same,weight % of not inf. control,[1]; 25 ppm in feed,82%
same,dropping scores,"[1]; 25 ppm in feed, grade 0 to 6",1
same,lesion score,"[1]; 25 ppm in feed, grade 0 to 6",3
same,oocyst in % of inf. control ac.,Eimeria acervulina; 5 ppm in feed,>100%
same,oocyst in % of inf. control ac.,Eimeria acervulina; 10 ppm in feed,>100%
same,oocyst in % of inf. control ac.,Eimeria acervulina; 25 ppm in feed,0%
same,Efficacy against Eimeria acervulina (grade),Eimeria acervulina; Dose 5 ppm,0
same,Efficacy against Eimeria acervulina (grade),Eimeria acervulina; Dose 10 ppm,0
same,Efficacy against Eimeria acervulina (grade),Eimeria acervulina; Dose 25 ppm,2
same,oocyst in % of inf. control max.,Eimeria maxima; 5 ppm in feed,>100%
same,oocyst in % of inf. control max.,Eimeria maxima; 10 ppm in feed,0%
same,oocyst in % of inf. control max.,Eimeria maxima; 25 ppm in feed,20%
same,Efficacy against Eimeria maxima (grade),Eimeria maxima; Dose 5 ppm,0
same,Efficacy against Eimeria maxima (grade),Eimeria maxima; Dose 10 ppm,0
same,Efficacy against Eimeria maxima (grade),Eimeria maxima; Dose 25 ppm,1
same,oocyst in % of inf. control ten.,Eimeria tenella; 5 ppm in feed,>100%
same,oocyst in % of inf. control ten.,Eimeria tenella; 10 ppm in feed,>100%
same,oocyst in % of inf. control ten.,Eimeria tenella; 25 ppm in feed,1%
same,Efficacy against Eimeria tenella (grade),Eimeria tenella; Dose 5 ppm,0
same,Efficacy against Eimeria tenella (grade),Eimeria tenella; Dose 10 ppm,0
same,Efficacy against Eimeria tenella (grade),Eimeria tenella; Dose 25 ppm,2
